# Article PMC7496275, “Pentathiepins: A Novel Class of Glutathione Peroxidase 1 Inhibitors that Induce Oxidative Stress, Loss of Mitochondrial Membrane Potential and Apoptosis in Human Cancer Cells” (Chemmedchem, 2020)
# What was measured:
# SISO cells = test: Fluorescence microscopy for lipid peroxidation (BODIPY 581/591); type: cell-based, human; conditions: 25 μM, 24 h
# Protocol: In another set of experiments, LPO was visualized by fluorescence microscopy with a dye for lipid peroxides, BODIPY 581/591. […] Together, our results point to apoptosis and not ferroptosis as the mechanism of cell death induced by 4.
# Fluorescence microscopy for the detection of lipid peroxidation: SISO cells (250 000 cells) were seeded out in 6‐well plates with an inserted coverslip. Cells were allow to attach for 24 h and then exposed to 25 μM 4 or 100 μM tert‐butyl‐hydroperoxide as a positive control. After 24 h coverslips were washed with PBS and stained with 1 μM BODIPY 581/591 in culture medium for 30 min. Cells on the coverslips were then mounted and examined with a Leica DMi8 fluorescence microscope at λ ex/em=460–500/512–542 nm for the oxidized BODIPY 581/591 and λ ex/em=540–581/592–668 for the reduced form.
# HL-60 cells [1] = test: MTT cell viability assay; type: cell-based; conditions: Homo sapiens, 48 h, read-out: IC50 for viability reduction
# Protocol: We determined IC50 values for the viability reduction in a low micro molar range (Figure 6B).
# MTT cell viability assay: For the detection of the inhibition of the viability of cells by the pentathiepins, the MTT‐viability assay was used.37 Briefly, 10 000 and 20 000 cells for the suspension cell lines HL‐60 and Gumbus, respectively, were seeded out in 50 μL medium per well and immediately exposed to the compounds. For the adherent cell lines SISO and HAP‐1, 3000 and 5000 cells, respectively, were seeded out in 96‐well plates and allowed to attach for 24 h. Cells were exposed to nine serial dilutions of compound, added to the medium from 1000‐fold concentrated stock solution in DMF. For the controls, cells were exposed to 0.1 % DMF alone. After 48 h incubation, 20 μL of the MTT stock solution (2.5 mg/mL in PBS) were added to each well to give a final concentration of 1.0 mM. The formazan crystals that formed after 4 h at 37 °C were dissolved by sonification after adding 100 μL of 0.04 M HCl in isopropanol for the suspension cell lines, or with 50 μL DMSO after aspiration of the medium for the adherent cell lines. Optical density was measured with a SpectraMax Plus 383 microtiter plate read at λ=570 nm (Molecular Devices, USA). […]
# HL-60 cells [2] = test: Apoptosis staining with Annexin-V/PI (flow cytometry); type: cell-based, human; conditions: multiples of viability IC50, 24 h
# Protocol: (§1) To determine whether the loss in viability by 4 is caused by apoptosis, a flow cytometric analysis with Annexin‐V−FITC and PI‐stained cells was used. Early apoptotic cells undergo a translocation of phosphatidyl serine from the inner to the outer cell membrane monitored by Annexin‐V−FITC. Late apoptotic or necrotic cells also show a loss of cell membrane integrity verifiable by PI. Cells were exposed to 4 in multiple concentrations of the viability inhibition IC50 for 6 and 24 h.
# (§2) Apoptosis staining with Annexin‐V/PI: For the apoptosis measurement, the translocation of phosphatidyl serine from the inner to the outer membrane by Annexin‐V and PI double staining was used.41 The protocol of the manufacturer (Miltenyi Biotec, Germany) of the “Annexin‐V‐FITC Apoptosis Detection Kit” was followed. In brief, 500,000 cells were seeded into 6‐well plates and exposed to 4 at multiple concentrations of the viability IC50 for 6 and 24 h. Afterwards, the cells were collected in reaction tubes, washed with the binding buffer belonging to the Annexin‐V‐Kit and stained with Annexin‐V‐FITC for 10 min. After repeated washing steps, the PI solution was added to the cells and followed by the flow cytometry investigation analyses at λ ex/em=488/525±50 nm for FITC and λ ex/em=488/655–730 nm for PI with a MACSQuant Analyzer 10 (Miltenyi Biotec).
# Gumbus cells = test: as above; type: cell-based, human
# Protocol: as §1, §2
# pBR322 plasmid = test: Cleavage of supercoiled plasmid DNA; conditions: 5 μM, 20 h, 37 °C
# Protocol: To assess the potential DNA‐cleaving activity of 4 a plasmid cleavage assay was performed. This method makes use of the different mobilities that plasmids display during electrophoretic separation processes in an agarose gel. An intact supercoiled plasmid has the highest mobility due to its compactness, open circular plasmids (ocDNA), e. g. plasmids with a single strand break, present a lower mobility due to increased friction of this less compact DNA construct. Commercially available DNA plasmids usually present ratios of 95 % supercoiled and 5 % ocDNA. Upon treatment with DNA‐damaging agents this ratio will be shifted towards a higher amount of ocDNA due to single strand breaks, or even linearized DNA in case double strand breaks are induced. […]
# Cleavage of supercoiled plasmid DNA: For this assay, 0.3 μg pBR322 plasmid (Thermo Fisher) were incubated with either 0.1 % DMF or 5 μM 4 with or without 2 mM glutathione (GSH) in a 50 mM sodium phosphate buffer at pH 7.5 for 20 h in a 37 °C water bath. Afterwards, the samples were separated on a 1 % agarose (Geneon) gel at 80 V (5 V/cm) for 2 h, stained with GelRed (Biotium) and the image captured and bands quantified using ImageLab (Biorad). The resulting data was analyzed and visualized with Prism 7 (GraphPad).
structure (smiles),measurement,setting,value
CCOc1c2c(c3cnc4cc(C)c(C)cc4n13)SSSSS2 [Compound 4],lipid peroxidation (LPO),SISO cells,no indication for LPO
same,IC50,HL-60 cells [1],6.9 µM
same,apoptotic population,HL-60 cells [2],significant increase of an apoptotic population
same,apoptotic population,"Gumbus cells; fourfold IC50 concentration, 6 h",nearly every cell was apoptotic
same,apoptotic population,"Gumbus cells; multiples of viability IC50, 6 h",significant increase of an apoptotic population
same,fraction of damaged plasmid,pBR322 plasmid; with 2 mM GSH,19%
same,fraction of damaged plasmid,pBR322 plasmid; without additional thiol,7%
